Test results taken from patent US11850220B2 (Augusta University Research Institute, Inc., priority 2020, dated 2023).

Key:
animal gastric mucosa = assay: ulcerogenic liability; type: in vivo; conditions: in vivo
[1] = system: acetic acid-induced abdominal writhing; assay: acetic acid-induced abdominal writhing technique (peripheral analgesic); type: in vivo; conditions: for Potency: Relative to indomethacin; for % Inhibition/protection / Writing reflex ± SEM: in vivo; on % Inhibition/protection: test concentration or dose not given here; on Writing reflex ± SEM: test concentration or dose not given here
COX-2 = target: T1, COX-2 (Homo sapiens, UniProt P35354); assay: COX-1/2 bio-assay: COX-2; type: biochemical; conditions: for IC50: read-out: IC50 ± SD, COX-2; for SI(COX-2/COX-1): selectivity index COX-2/COX-1
T1 sequence (P35354 18-604): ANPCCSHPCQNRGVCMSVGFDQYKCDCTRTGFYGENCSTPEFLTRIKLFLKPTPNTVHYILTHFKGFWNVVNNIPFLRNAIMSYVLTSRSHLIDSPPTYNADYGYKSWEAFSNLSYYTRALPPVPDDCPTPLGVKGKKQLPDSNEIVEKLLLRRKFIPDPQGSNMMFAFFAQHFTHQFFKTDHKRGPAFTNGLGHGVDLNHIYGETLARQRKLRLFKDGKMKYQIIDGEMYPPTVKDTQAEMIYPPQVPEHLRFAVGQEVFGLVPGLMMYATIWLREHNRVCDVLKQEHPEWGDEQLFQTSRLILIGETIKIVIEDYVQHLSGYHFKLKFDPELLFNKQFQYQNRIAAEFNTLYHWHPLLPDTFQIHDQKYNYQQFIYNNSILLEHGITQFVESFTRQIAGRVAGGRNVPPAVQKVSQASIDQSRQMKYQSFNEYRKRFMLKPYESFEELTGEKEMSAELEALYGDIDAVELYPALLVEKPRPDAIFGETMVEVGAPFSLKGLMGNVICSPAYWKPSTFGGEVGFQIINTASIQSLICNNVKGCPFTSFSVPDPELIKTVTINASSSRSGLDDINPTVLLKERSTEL
Source text: (§1) Cyclooxygenases (COX) are the key enzymes capable of the conversion of arachidonic acid to prostaglandins.

[2] = system: carrageenan-induced paw edema; assay: carrageenan-induced paw edema technique (anti-inflammatory); type: in vivo; conditions: for Observed (1/property): 1/(% inhibition of edema thickness at 3 h effect); on Observed (1/property): test concentration or dose not given here; on Potency (% Inhibition relative to indomethacin at 3 h effect): test concentration or dose not given here
Source text: Anti-inflammatory properties of the ibuprofen-amino acid conjugate (5a-j) and ibuprofen-amino acid-4-aminophenol conjugates 7a-j were studied by the standard carrageenan-induced paw edema technique (Naumov, R. N. et al., Bioorg. Med. Chem. Lett. 2015, 25, 2314-2320; Tiwari, A. D. et al., Org. Biomol. Chem. 2014, 12, 7238-7249).

hot plate = hot plate technique (central analgesic); type: in vivo; conditions: for Potency: Relative to indomethacin at 120 min.
COX-1 = COX-1 (Homo sapiens, UniProt P23219); assay: COX-1/2 bio-assay: COX-1; type: biochemical; conditions: read-out: IC50 ± SD, COX-1
Source text: as §1

[3] = % inhibition of edema thickness at 3 h effect, Table 7
[4] = anti-inflammatory property (% inhibition of edema at 3 h), Table 8

COX-1, sequence (P23219 24-599): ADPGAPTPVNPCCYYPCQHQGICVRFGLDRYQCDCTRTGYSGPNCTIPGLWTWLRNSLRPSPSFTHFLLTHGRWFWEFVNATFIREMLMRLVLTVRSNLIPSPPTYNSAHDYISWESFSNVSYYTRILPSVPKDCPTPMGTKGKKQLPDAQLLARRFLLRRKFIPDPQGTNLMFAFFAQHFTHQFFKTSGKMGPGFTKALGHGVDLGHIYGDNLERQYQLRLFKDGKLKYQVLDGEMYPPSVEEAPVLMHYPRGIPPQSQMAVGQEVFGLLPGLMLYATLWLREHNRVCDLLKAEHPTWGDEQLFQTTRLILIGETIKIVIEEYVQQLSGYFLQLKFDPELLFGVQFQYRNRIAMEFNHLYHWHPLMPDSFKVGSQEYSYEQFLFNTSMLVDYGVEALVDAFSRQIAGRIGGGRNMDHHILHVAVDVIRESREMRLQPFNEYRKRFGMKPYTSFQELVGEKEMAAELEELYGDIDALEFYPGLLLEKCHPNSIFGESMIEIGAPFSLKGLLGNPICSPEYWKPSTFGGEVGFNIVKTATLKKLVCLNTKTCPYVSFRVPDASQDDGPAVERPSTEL

CC(C)Cc1ccc(C(C)C(=O)N[C@@H](CC(C)C)C(=O)Nc2ccc(O)cc2)cc1 (stereo partly drawn) [Compound 7g, (2S)-N-(4-Hydroxyphenyl)-2-(2-(4-isobutylphenyl)propanamido)-4-methylpentanamide]
% Incidence of ulcer divided by 10 (animal gastric mucosa): 0 | Average of ulcer number (animal gastric mucosa): 0 | Average severity of ulcer (animal gastric mucosa): 0 | Number of animals with ulcer (animal gastric mucosa): 0 | Ulcer index (animal gastric mucosa): 0 | Potency [1]: 144 | % Inhibition/protection [1]: 79.1% | Writing reflex ± SEM [1]: 20.3 ± 0.9 | IC50 (COX-2): 144 ± 11.2 µM | SI(COX-2/COX-1) (COX-2): 54.3 | Observed (1/property) ([2]; Table 7): 0.01333 | % inhibition of edema ([2]; 1 h): 30% | Mean edema thickness ([2]; 1 h): 0.86 ± 0.03 mm | % inhibition of edema ([2]; 2 h): 39% | Mean edema thickness ([2]; 2 h): 0.92 ± 0.04 mm | % inhibition of edema ([2]; 3 h): 75% | Mean edema thickness ([2]; 3 h): 0.33 ± 0.03 mm | % inhibition of edema ([2]; 4 h): 48% | Mean edema thickness ([2]; 4 h): 0.65 ± 0.03 mm | % inhibition of edema ([2]; 24 h): 37% | Mean edema thickness ([2]; 24 h): 0.12 ± 0.03 mm | Observed property [2, 3]: 75% | Observed property [2, 4]: 75% | Potency (% Inhibition relative to indomethacin at 3 h effect) [2]: 94% | % protection (hot plate; After 30 min.): (36.0) % | Latency period ± SEM (hot plate; After 30 min.): 3.29 ± 0.05 s | % protection (hot plate; After 60 min.): (39.0) % | Latency period ± SEM (hot plate; After 60 min.): 3.10 ± 0.01 s | % protection (hot plate; After 90 min.): (43.6) % | Latency period ± SEM (hot plate; After 90 min.): 3.16 ± 0.06 s | % protection (hot plate; After 120 min.): (79.0) % | Latency period ± SEM (hot plate; After 120 min.): 3.92 ± 0.08 s | Potency (hot plate): 140 | IC50 (COX-1): 2.65 ± 0.13 µM | melting point: 230.5 °C

CC(C)Cc1ccc(C(C)C(=O)NCC(=O)Nc2ccc(O)cc2)cc1 (stereo not shown) [Compound 7a, N-(2-((4-Hydroxyphenyl)amino)-2-oxoethyl)-2-(4-isobutylphenyl)propanamide]
% Incidence of ulcer divided by 10 (animal gastric mucosa): 0 | Average of ulcer number (animal gastric mucosa): 0 | Average severity of ulcer (animal gastric mucosa): 0 | Number of animals with ulcer (animal gastric mucosa): 0 | Ulcer index (animal gastric mucosa): 0 | Potency [1]: 139 | % Inhibition/protection [1]: 76.4% | Writing reflex ± SEM [1]: 23.0 ± 0.9 | IC50 (COX-2): 78.3 ± 5.54 µM | SI(COX-2/COX-1) (COX-2): 29.0 | Observed (1/property) ([2]; Table 7): 0.01316 | % inhibition of edema ([2]; 1 h): 41% | Mean edema thickness ([2]; 1 h): 0.73 ± 0.04 mm | % inhibition of edema ([2]; 2 h): 65% | Mean edema thickness ([2]; 2 h): 0.53 ± 0.03 mm | % inhibition of edema ([2]; 3 h): 76% | Mean edema thickness ([2]; 3 h): 0.31 ± 0.02 mm | % inhibition of edema ([2]; 4 h): 83% | Mean edema thickness ([2]; 4 h): 0.21 ± 0.02 mm | % inhibition of edema ([2]; 24 h): 42% | Mean edema thickness ([2]; 24 h): 0.11 ± 0.03 mm | Observed property [2, 3]: 76% | Observed property [2, 4]: 76% | Potency (% Inhibition relative to indomethacin at 3 h effect) [2]: 95% | % protection (hot plate; After 30 min.): (97.1) % | Latency period ± SEM (hot plate; After 30 min.): 4.77 ± 0.07 s | % protection (hot plate; After 60 min.): (94.6) % | Latency period ± SEM (hot plate; After 60 min.): 4.34 ± 0.04 s | % protection (hot plate; After 90 min.): (86.4) % | Latency period ± SEM (hot plate; After 90 min.): 4.10 ± 0.02 s | % protection (hot plate; After 120 min.): (81.7) % | Latency period ± SEM (hot plate; After 120 min.): 3.98 ± 0.11 s | Potency (hot plate): 144 | IC50 (COX-1): 2.7 ± 0.13 µM | melting point: 175.9 °C
